Measured values: article PMC11167047 (Cell Death Discovery, 2024)

Key:
Assay in all cases: kinome screen (33PanQinase)
Assay type in all cases: biochemical
PHKG2 = target: T1, PHKG2 (Homo sapiens, UniProt P15735)
T1 construct: purchased Reaction Biology Europe GmbH (formerly ProQinase)
T1 sequence (P15735 1-406): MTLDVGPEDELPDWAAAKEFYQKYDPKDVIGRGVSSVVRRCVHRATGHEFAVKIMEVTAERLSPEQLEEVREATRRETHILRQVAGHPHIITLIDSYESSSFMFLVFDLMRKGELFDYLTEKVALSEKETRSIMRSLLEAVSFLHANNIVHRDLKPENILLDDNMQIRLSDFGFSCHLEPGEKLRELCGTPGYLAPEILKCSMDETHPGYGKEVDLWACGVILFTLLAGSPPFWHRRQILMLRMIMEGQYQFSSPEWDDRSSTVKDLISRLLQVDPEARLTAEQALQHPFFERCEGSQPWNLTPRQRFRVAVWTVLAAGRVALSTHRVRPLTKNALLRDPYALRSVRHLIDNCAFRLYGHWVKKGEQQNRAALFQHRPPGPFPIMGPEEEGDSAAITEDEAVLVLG
Experimental: (§1) The Kinome Screening was performed by Reaction Biology Europe GmbH (http://reactionbiology.com; Freiburg i. Br., Germany).

FRK = target: T2, FRK (Homo sapiens, UniProt P42685)
T2 construct: purchased Reaction Biology Europe GmbH (formerly ProQinase)
T2 sequence (P42685 whole entry): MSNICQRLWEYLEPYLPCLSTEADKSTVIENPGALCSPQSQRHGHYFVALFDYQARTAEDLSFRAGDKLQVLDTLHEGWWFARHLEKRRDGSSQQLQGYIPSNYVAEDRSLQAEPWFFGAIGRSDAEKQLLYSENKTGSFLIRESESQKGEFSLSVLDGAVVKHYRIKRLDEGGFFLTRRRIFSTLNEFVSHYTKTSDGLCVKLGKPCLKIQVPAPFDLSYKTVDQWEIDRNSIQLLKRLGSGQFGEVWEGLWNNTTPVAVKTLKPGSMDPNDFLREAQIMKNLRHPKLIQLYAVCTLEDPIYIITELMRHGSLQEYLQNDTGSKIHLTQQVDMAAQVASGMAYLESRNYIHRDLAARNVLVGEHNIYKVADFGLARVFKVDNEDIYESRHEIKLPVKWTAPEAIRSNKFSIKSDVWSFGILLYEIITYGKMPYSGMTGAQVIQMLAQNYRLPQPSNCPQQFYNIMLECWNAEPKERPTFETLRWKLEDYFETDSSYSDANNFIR
Experimental: as §1

CDC42BPB = target: T3, CDC42BPB (Homo sapiens, UniProt Q9Y5S2)
T3 construct: purchased Reaction Biology Europe GmbH (formerly ProQinase)
T3 sequence (Q9Y5S2 whole entry): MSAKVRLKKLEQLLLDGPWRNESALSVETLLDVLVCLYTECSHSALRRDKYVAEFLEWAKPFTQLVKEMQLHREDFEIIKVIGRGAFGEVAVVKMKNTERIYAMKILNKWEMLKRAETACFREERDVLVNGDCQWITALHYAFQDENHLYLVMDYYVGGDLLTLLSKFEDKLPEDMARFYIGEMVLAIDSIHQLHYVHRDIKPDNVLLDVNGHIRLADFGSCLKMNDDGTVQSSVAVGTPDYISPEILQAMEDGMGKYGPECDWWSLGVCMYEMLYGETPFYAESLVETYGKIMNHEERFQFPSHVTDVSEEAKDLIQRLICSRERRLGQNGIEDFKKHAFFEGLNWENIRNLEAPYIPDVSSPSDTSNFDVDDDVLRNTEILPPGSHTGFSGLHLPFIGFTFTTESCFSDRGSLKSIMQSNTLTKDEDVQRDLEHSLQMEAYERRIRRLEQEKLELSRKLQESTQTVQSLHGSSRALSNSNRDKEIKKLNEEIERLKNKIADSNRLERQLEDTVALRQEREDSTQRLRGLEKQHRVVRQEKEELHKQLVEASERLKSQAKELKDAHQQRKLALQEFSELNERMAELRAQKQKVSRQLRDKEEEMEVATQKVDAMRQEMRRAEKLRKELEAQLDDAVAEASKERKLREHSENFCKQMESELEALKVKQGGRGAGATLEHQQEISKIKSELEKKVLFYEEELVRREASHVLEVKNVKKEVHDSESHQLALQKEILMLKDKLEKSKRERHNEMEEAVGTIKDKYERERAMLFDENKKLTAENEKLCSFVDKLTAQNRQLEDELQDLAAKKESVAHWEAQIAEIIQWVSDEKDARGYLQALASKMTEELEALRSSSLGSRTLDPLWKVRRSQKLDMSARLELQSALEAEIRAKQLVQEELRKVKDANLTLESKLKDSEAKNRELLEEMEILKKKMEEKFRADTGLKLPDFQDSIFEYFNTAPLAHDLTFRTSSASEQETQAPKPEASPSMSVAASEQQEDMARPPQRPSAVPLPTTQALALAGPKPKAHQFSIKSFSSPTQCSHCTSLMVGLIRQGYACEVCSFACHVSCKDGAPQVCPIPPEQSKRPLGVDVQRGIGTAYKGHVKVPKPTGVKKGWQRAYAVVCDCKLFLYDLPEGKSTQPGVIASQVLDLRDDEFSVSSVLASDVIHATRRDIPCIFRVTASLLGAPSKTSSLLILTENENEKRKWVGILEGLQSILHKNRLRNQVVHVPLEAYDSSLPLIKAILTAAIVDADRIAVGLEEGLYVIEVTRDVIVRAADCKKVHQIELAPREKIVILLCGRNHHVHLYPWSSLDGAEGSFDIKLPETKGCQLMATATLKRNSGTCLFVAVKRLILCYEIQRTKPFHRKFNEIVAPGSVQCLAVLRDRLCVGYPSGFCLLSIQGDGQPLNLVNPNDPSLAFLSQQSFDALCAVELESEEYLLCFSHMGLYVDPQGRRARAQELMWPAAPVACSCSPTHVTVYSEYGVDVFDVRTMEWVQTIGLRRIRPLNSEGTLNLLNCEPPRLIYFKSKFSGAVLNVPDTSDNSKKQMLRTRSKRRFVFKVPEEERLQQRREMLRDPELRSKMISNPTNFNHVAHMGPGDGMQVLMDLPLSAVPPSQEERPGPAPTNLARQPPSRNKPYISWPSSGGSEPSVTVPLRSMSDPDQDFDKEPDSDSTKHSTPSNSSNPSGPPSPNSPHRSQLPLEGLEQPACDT
Experimental: as §1

DCAMKL2 = target: T4, DCAMKL2 (Homo sapiens, UniProt Q8N568)
T4 construct: purchased Reaction Biology Europe GmbH (formerly ProQinase)
T4 sequence (Q8N568 1-766): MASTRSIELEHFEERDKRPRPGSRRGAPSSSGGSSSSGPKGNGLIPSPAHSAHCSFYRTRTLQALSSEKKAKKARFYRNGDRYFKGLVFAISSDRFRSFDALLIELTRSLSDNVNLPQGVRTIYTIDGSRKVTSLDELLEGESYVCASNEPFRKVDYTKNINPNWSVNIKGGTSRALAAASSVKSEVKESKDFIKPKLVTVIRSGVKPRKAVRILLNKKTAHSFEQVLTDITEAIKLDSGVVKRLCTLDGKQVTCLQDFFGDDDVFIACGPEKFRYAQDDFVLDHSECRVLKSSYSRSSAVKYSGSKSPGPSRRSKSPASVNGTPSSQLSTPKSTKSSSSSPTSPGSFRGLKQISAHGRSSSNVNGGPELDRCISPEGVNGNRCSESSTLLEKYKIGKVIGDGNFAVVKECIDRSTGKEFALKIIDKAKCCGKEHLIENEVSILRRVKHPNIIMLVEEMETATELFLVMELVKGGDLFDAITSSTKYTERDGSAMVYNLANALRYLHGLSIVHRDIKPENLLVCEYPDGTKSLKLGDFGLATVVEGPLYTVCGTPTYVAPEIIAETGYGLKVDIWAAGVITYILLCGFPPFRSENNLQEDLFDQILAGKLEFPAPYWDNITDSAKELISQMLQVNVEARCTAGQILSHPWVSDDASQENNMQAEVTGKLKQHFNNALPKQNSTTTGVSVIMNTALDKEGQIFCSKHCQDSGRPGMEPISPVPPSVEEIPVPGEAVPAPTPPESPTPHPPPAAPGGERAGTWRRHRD
Experimental: as §1

AMPKα1 = target: T5, AMPKα1 (Homo sapiens, UniProt Q13131)
T5 construct: purchased Reaction Biology Europe GmbH (formerly ProQinase)
T5 sequence (Q13131 10-559 limits assumed): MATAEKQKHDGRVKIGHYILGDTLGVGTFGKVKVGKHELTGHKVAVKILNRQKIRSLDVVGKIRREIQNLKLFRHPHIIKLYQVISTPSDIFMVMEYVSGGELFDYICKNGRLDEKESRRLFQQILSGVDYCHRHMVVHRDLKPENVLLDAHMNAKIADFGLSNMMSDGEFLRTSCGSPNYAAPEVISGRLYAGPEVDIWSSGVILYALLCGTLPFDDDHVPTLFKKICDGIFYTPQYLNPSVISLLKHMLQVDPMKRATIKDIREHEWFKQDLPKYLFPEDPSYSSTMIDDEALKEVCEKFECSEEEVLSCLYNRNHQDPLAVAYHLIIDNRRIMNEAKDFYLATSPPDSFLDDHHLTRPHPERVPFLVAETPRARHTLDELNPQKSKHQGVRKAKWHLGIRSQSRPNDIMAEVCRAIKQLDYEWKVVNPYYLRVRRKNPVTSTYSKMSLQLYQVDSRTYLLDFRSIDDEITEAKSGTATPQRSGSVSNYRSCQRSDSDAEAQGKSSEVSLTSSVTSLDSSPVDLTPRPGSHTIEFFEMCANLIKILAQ
Experimental: as §1

NIK = target: T6, NIK (Homo sapiens, UniProt Q99558)
T6 construct: purchased Reaction Biology Europe GmbH (formerly ProQinase)
Experimental: as §1

CHK2 = target: T7, CHK2 (Homo sapiens, UniProt O96017)
T7 construct: purchased Reaction Biology Europe GmbH (formerly ProQinase)
Experimental: as §1

S6K = target: T8, S6K (Homo sapiens, UniProt P23443)
T8 construct: purchased Reaction Biology Europe GmbH (formerly ProQinase)
T8 sequence (P23443 whole entry): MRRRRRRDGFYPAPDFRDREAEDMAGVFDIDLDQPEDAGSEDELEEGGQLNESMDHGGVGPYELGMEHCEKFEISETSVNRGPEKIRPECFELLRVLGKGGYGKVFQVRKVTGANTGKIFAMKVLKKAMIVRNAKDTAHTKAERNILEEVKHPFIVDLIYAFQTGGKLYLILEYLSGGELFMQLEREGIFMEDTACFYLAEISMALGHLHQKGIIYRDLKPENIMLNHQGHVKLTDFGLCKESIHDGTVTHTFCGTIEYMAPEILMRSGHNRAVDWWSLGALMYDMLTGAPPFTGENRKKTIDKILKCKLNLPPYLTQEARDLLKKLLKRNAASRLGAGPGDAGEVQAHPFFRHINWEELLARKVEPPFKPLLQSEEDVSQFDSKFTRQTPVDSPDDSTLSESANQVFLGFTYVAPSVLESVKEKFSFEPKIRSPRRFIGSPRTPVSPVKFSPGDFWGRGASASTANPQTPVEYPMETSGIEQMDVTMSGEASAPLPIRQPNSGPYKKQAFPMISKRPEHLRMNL
Experimental: as §1

RIPK2 = target: T9, RIPK2 (Homo sapiens, UniProt O43353)
T9 construct: purchased Reaction Biology Europe GmbH (formerly ProQinase)
T9 sequence (O43353 whole entry): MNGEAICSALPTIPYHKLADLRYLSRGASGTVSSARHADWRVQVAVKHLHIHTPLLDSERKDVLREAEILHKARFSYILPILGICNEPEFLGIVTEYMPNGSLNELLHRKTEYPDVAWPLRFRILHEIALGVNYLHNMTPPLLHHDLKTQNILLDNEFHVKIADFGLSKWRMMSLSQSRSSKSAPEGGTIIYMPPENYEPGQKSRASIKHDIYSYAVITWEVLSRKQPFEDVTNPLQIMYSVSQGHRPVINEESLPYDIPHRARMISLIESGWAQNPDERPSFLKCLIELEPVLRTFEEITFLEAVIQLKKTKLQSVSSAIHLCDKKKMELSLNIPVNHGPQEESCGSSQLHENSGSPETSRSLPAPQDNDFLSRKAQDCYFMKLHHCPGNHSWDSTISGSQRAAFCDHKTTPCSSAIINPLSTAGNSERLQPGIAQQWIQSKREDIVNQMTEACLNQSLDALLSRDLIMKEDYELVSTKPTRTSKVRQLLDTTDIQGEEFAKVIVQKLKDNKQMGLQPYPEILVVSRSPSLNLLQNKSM
Experimental: as §1

JAK1 = target: T10, JAK1 (Homo sapiens, UniProt P23458)
T10 construct: purchased Reaction Biology Europe GmbH (formerly ProQinase)
T10 sequence (P23458 whole entry): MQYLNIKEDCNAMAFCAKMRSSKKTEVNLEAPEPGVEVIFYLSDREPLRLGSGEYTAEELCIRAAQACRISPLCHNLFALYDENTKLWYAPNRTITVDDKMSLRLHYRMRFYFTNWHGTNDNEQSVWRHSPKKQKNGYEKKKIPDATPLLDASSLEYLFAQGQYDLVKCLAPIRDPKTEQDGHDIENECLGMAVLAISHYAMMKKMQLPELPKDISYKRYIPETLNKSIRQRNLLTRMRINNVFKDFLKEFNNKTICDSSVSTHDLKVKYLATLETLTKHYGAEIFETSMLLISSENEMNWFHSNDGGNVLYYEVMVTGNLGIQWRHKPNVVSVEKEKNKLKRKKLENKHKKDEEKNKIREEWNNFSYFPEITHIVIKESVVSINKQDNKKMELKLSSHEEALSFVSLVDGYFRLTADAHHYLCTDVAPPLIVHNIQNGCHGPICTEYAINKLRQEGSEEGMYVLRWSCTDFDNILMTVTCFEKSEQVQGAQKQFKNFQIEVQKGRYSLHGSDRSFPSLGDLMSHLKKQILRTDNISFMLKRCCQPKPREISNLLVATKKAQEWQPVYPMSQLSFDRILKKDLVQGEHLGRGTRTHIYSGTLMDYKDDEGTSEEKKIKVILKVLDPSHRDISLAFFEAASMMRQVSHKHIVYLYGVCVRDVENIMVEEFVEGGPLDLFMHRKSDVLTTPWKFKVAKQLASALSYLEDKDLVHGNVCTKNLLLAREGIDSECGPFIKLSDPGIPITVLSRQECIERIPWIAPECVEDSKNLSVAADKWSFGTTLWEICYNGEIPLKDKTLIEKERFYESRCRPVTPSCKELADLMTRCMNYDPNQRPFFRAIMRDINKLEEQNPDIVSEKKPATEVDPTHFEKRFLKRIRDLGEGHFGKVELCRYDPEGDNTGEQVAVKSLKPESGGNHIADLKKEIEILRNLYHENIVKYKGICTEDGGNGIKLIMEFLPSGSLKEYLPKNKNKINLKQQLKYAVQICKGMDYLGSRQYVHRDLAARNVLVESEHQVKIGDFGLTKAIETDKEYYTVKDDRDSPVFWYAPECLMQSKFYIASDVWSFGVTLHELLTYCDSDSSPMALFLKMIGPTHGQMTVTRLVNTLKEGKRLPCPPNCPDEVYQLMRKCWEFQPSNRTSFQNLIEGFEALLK
Experimental: as §1

CDC7/DBF4 = target: T11, CDC7/DBF4 (Homo sapiens, UniProt O00311)
T11 construct: purchased Reaction Biology Europe GmbH (formerly ProQinase)
Experimental: as §1

PDGFRβ = target: T12, PDGFRβ (Homo sapiens, UniProt P09619)
T12 construct: purchased Reaction Biology Europe GmbH (formerly ProQinase)
Experimental: as §1

STK33 = target: T13, STK33 (Homo sapiens, UniProt Q9BYT3)
T13 construct: purchased Reaction Biology Europe GmbH (formerly ProQinase)
Experimental: as §1

| Structure (SMILES) | residual kinase activity (PHKG2; 0.3 µM) | residual kinase activity (FRK; 0.3 µM) | residual kinase activity (CDC42BPB; 0.3 µM) | residual kinase activity (DCAMKL2; 0.3 µM) | residual kinase activity (AMPKα1; 0.3 µM) | residual kinase activity (NIK; 0.3 µM) | residual kinase activity (CHK2; 0.3 µM) | residual kinase activity (S6K; 0.3 µM) | residual kinase activity (RIPK2; 0.3 µM) | residual kinase activity (JAK1; 0.3 µM) | residual kinase activity (CDC7/DBF4; 0.3 µM) | residual kinase activity (PDGFRβ; 0.3 µM) | residual kinase activity (STK33; 0.3 µM) | also measured |
| --- | --- | --- | --- | --- | --- | --- | --- | --- | --- | --- | --- | --- | --- | --- |
| COc1ccnc2[nH]cc(-c3cc(N)nc(N)c3)c12 [meriolin 16] | 52 % of control | 99 % of control | 2 % of control | 85 % of control | 78 % of control | 79 % of control | 82 % of control | 84 % of control | 78 % of control | 86 % of control | 12 % of control | 75 % of control | 43 % of control | residual kinase activity (PHKG2; 0.03 µM): 74 % of control; residual kinase activity (FRK; 0.03 µM): 103 % of control; residual kinase activity (CDC42BPB; 0.03 µM): 37 % of control; residual kinase activity (DCAMKL2; 0.03 µM): 92 % of control; residual kinase activity (AMPKα1; 0.03 µM): 108 % of control; residual kinase activity (NIK; 0.03 µM): 94 % of control; residual kinase activity (CHK2; 0.03 µM): 90 % of control; residual kinase activity (S6K; 0.03 µM): 99 % of control; residual kinase activity (RIPK2; 0.03 µM): 95 % of control; residual kinase activity (JAK1; 0.03 µM): 78 % of control; residual kinase activity (CDC7/DBF4; 0.03 µM): 63 % of control; residual kinase activity (PDGFRβ; 0.03 µM): 93 % of control; residual kinase activity (STK33; 0.03 µM): 73 % of control |
| c1ccc(CNc2cc(-c3c[nH]c4ncccc34)ccn2)cc1 [meriolin 36] | 52 % of control | 54 % of control | 0 % of control | 91 % of control | 57 % of control | 59 % of control | 81 % of control | 82 % of control | 61 % of control | 58 % of control | 10 % of control | 24 % of control | 41 % of control | residual kinase activity (PHKG2; 3 µM): 23 % of control; residual kinase activity (FRK; 3 µM): 16 % of control; residual kinase activity (CDC42BPB; 3 µM): 0 % of control; residual kinase activity (DCAMKL2; 3 µM): 81 % of control; residual kinase activity (AMPKα1; 3 µM): 9 % of control; residual kinase activity (NIK; 3 µM): 33 % of control; residual kinase activity (CHK2; 3 µM): 41 % of control; residual kinase activity (S6K; 3 µM): 37 % of control; residual kinase activity (RIPK2; 3 µM): 33 % of control; residual kinase activity (JAK1; 3 µM): 25 % of control; residual kinase activity (CDC7/DBF4; 3 µM): 2 % of control; residual kinase activity (PDGFRβ; 3 µM): 4 % of control; residual kinase activity (STK33; 3 µM): 14 % of control |
